From patent US12617770B2, “IRAK inhibitor and preparation method therefor and use thereof” (WUHAN CREATERNA SCIENCE AND TECHNOLOGY CO., LTD., priority 2019, dated 2026)

Legend:
CYP2C19 = biological target: T1, CYP2C19 (Homo sapiens, UniProt P33261); assay: CYP450 inhibition in human liver microsomes, CYP2C19; assay type: in vitro ADME; settings: pooled (mixed) human liver microsomes, probe mephenytoin
T1 construct: co-incubated at 7 concentrations with human liver microsomes and five probe substrates; tissue Corning (USA); host or cells: mixed (pooled) human liver microsomes
T1 sequence (P33261 whole entry): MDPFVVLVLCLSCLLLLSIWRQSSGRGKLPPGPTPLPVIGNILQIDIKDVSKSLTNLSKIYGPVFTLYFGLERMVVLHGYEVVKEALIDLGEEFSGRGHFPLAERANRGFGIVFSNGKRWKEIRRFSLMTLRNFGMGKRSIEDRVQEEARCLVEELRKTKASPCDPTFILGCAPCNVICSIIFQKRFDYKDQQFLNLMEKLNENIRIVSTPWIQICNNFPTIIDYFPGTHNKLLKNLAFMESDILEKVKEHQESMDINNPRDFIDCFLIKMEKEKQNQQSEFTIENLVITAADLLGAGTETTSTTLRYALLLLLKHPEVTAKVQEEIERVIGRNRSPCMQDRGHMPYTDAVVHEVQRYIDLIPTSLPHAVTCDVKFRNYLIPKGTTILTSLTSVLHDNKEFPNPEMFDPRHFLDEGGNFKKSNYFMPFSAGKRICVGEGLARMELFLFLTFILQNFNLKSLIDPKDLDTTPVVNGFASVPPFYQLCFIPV
Procedure: (§1) This study was intended to investigate the inhibitory effect of the test compounds on 5 major enzymes in human P450 superfamily, CYP1A2, 2C9, 2C19, 2D6 and 3A4-M. The mixed human liver microsomes used in this assay were purchased from Corning (USA). The test compound (compound 14) was co-incubated at 7 concentrations with human liver microsomes and five probe substrates (phenacetin for CYP1a2, diclofenac for CYP2C9, mephenytoin for CYP2C19, dextromethorphan for CYP2D6, midazolam for CYP3A4-M, mixed). The reaction was initiated by adding coenzyme NADPH, and terminated by adding acetonitrile containing internal standard. After the proteins were precipitated, the supernatant was centrifuged. The characteristic metabolites in the supernatant (acetaminophen for CYP1A2, 4-hydroxydiclofenac for CYP2C9, 4-hydroxymephenytoin for CYP2C19, dextrorphan for CYP2D6, 1-hydroxymidazolam for CYP3A4-M) were analyzed by LC-MS/MS. The influence of the test compounds on production of the characteristic metabolites was finally analyzed on the basis of the data obtained. A selective inhibitor (ketoconazole for CYP3A4-M) may be used as positive control. All samples were tested in duplicate.

CYP1A2 = biological target: T2, CYP1A2 (Homo sapiens, UniProt P05177); assay: CYP450 inhibition in human liver microsomes, CYP1A2; assay type: in vitro ADME; settings: pooled (mixed) human liver microsomes, probe phenacetin
T2 construct: co-incubated at 7 concentrations with human liver microsomes and five probe substrates; tissue Corning (USA); host or cells: mixed (pooled) human liver microsomes
T2 sequence (P05177 1-516): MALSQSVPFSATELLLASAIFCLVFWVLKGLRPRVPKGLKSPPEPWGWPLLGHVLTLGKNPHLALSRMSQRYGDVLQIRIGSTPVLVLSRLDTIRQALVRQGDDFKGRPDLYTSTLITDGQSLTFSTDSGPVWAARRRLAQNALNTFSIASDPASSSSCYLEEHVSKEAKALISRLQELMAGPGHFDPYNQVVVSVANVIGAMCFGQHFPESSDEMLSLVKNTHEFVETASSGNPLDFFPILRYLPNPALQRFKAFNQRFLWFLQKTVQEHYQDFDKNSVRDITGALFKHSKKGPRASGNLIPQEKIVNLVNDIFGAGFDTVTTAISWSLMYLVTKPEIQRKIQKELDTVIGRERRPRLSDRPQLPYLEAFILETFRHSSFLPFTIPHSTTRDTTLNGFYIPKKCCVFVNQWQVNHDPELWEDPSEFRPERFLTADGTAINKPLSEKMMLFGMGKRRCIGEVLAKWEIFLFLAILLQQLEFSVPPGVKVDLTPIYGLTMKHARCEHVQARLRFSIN
Procedure: as §1

CYP3A4 = biological target: T3, CYP3A4 (Homo sapiens, UniProt P08684); assay: CYP450 inhibition in human liver microsomes, CYP3A4-M; assay type: in vitro ADME; settings: pooled (mixed) human liver microsomes, probe midazolam; human liver microsomes, midazolam; read-out: CYP3A4 IC50
T3 construct: The test compounds were co-incubated with the human liver microsomes and a probe substrate midazolam (CYP3A4); tissue Corning (USA); host or cells: mixed (pooled) human liver microsomes
T3 sequence (P08684 whole entry): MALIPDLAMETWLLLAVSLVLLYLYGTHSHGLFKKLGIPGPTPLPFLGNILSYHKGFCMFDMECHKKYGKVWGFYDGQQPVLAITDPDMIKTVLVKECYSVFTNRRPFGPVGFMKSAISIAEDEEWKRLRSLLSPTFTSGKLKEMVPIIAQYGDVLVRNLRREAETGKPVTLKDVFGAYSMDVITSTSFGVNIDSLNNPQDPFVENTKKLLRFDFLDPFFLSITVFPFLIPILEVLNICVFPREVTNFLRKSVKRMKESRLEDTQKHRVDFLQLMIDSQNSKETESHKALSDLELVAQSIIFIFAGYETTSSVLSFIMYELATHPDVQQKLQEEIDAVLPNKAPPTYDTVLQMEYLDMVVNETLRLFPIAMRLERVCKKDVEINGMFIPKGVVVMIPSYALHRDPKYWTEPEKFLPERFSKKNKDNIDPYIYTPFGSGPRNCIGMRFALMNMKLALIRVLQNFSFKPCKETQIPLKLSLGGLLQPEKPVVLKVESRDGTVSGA
Procedure: as §1

TNF-α release = assay: Inhibition of cytokine TNF-α release in LPS-induced Balb/c female mice; assay type: in vivo; settings: oral gavage 16 h before LPS (i.p. 0.2 mg/kg); serum 1.5 h after stimulation
Procedure: Female Balb/c mice were randomized into groups, each containing 4 mice, including a control+vehicle group, a model+vehicle group, a model+reference group and model+compound groups. The control animals received an intraperitoneal injection of normal saline (10 mL/kg) and the model animals received LPS stimulation (Sigma CAT #L2630, i.p., 10 mL/kg, 0.2 mg/kg). To the test compounds, DMSO, Solutol and 10 mM PBS were sequentially added to prepare a solution or suspension of required concentration for administration. For the vehicle, DMSO, Solutol and 10 mM PBS were mixed in a volume ratio of 5:15:80. The animals were administered through oral gavage (10 mL/kg) 16 h before LPS (or saline) stimulation at predetermined doses, and euthanized with CO2 at 1.5 h after the stimulation for cardiac blood collection. The whole blood was not anticoagulated, incubated in wet ice for 1.5 h, and centrifuged at 2000×g at 4° C. for 10 min to separate the serum. Serum was frozen at −80° C. for TNF-α assay. Quantification of TNF-α was done by TNF-α ELISA kit according to the manufacturer's instructions. The readings of absorbance at A450 were measured with a microplate reader SpectraMax i3x (Molecular Device) for calculating the inhibition of the compounds, and IC50 was calculated with GraphPad Prism 7.0 software. […] In particular, some exemplary compound inhibition rate values are as follows: […]

| IC50 (CYP2C19) [µM] | IC50 (CYP1A2) [µM] | IC50 (CYP3A4) [µM] | Compound | Inhibition rate (%) of TNF-α (TNF-α release) [%] |
| --- | --- | --- | --- | --- |
| > 30 | > 30 | > 30 | COc1cc2nn(CCC(C)(C)O)cc2cc1NC(=O)c1cccc(C)[n+]1[O-] [Compound 163, 2-((2-(3-hydroxy-3-methylbutyl)-6-methoxy-2H-indazol-5-yl)carbamoyl)-6-methylpyridine 1-oxide] | 71.56 |
| > 30 | > 30 | > 30 | COc1cc2nn([C@H]3CC[C@](C)(O)CC3)cc2cc1NC(=O)c1cccc(C)[n+]1[O-] [Compound 001, 2-((2-((1r,4r)-4-hydroxy-4-methylcyclohexyl)-6-methoxy-2H-indazol-5-yl)carbamoyl)-6-methylpyridine 1-oxide] | 74.00 |
